Measurements published in PubChem BioAssay AID602237 (National Center for Advancing Translational Sciences (NCATS), 2012).
In brackets after ≈: the same amount, converted by molar mass.

System: aqueous kinetic solubility, PBS pH 7.4, LC-UV/MS
Experiment: qHTS for Activators of Human alpha-Glucosidase as a Potential Chaperone Treatment of Pompe Disease: Aqueous Solubility
Settings: hits give high values
Description: Alpha-glucosidase is responsible for hydrolysis of terminal, non-reducing 1,4-linked alpha-D-glucose residues with release of alpha-D-glucose. It is a lysosomal hydrolase that is required for the degradation of a small percentage (1-3%) of cellular glycogen in human. Deficiency of this enzyme results in glycogen-storage disease type II (GSDII), also referred to as Pompe disease, an autosomal recessive disorder. Structurally normal glycogen is accumulated in lysosomes and cytoplasm in affected patients, primarily in muscle tissues. Excessive glycogen storage within lysosomes may interrupt normal functioning of other organelles and leads to cellular injury. In turn, this leads to enlargement and dysfunction of the entire organ involved (eg, cardiomyopathy and muscle weakness). It has reported that the improper folding and trafficking of alpha-glucosidase resulting from the genetic mutations may account for a significant number of Pompe patients. […]
1. […] Concentration of the supernatant was determined by LC-UV or LC-MS/MS […]

- solubility: 289 µM (≈ 109 µg/mL)
SMILES: CCCN1CNc2c(c(=O)[nH]c(=S)n2Cc2ccc(OC)c(OC)c2)C1
